Columns and labels:
PI3Kα = PI3Kα (Homo sapiens (Human), UniProt P42336); assay: biochemical; type: binding
mTOR = mTOR (Homo sapiens (Human), UniProt P42345); assay: biochemical; type: binding
[1] = male, SD, rat, in vivo, iv, 2 mg/kg
in vivo [2] = conditions: male, SD, rat, iv, 2 mg/kg
in vivo [3] = conditions: male, SD, rat, po, 4 mg/kg

Sequence of PI3Kα (P42336 whole entry): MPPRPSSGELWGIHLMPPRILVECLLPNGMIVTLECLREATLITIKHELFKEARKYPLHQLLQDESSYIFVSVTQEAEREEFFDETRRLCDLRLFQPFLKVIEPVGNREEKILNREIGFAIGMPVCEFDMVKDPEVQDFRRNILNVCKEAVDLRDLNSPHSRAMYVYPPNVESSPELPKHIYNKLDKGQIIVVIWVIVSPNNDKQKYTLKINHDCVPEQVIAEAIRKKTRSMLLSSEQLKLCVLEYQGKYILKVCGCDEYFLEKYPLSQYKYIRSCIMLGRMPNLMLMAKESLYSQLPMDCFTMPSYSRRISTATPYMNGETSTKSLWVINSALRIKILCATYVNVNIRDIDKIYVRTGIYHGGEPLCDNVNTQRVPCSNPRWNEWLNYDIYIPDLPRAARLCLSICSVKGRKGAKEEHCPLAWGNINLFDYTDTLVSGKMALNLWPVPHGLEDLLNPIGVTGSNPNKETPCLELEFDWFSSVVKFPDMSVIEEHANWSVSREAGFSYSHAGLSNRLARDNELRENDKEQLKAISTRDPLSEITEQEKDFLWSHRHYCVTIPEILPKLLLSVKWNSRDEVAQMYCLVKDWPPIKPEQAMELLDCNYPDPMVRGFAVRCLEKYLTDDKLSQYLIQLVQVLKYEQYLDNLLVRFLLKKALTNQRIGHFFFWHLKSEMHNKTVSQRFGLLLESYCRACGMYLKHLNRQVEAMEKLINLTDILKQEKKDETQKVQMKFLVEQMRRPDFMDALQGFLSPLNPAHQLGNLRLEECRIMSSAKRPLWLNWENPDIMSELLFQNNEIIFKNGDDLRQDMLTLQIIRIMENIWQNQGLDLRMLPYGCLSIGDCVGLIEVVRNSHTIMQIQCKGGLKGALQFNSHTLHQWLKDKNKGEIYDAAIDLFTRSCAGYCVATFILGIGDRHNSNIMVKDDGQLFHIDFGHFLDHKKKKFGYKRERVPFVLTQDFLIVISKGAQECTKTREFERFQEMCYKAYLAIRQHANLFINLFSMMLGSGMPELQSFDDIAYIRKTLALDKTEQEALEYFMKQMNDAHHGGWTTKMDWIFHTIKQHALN
Sequence of PI3Kα (P27986 whole entry partner): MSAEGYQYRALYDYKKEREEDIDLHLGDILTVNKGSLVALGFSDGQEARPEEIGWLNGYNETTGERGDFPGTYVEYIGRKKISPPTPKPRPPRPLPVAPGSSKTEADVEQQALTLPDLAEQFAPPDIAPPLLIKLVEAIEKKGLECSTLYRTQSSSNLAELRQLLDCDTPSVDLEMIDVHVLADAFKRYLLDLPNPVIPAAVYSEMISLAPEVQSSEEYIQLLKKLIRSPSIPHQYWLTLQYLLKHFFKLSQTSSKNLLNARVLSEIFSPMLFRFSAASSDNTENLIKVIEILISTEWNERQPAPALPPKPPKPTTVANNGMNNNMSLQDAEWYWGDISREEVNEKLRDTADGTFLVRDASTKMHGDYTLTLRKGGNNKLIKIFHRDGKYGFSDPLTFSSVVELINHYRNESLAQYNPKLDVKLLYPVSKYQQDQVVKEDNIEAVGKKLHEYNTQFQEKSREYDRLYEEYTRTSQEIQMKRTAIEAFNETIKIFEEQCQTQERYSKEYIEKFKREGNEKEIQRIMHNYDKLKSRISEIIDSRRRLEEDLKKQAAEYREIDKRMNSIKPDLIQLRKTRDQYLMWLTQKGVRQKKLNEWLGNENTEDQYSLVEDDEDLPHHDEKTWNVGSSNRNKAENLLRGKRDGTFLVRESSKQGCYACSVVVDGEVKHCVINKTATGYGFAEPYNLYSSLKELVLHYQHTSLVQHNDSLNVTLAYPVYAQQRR

SMILES	IC50 (PI3Kα) [nM]	IC50 (mTOR) [nM]	Cl_obs [1] [L/h/kg]	Vss_obs [1] [L/kg]	AUC (in vivo [2]) [ng·h/mL]	half-life (in vivo [2]) [min]	AUC (in vivo [3]) [ng·h/mL]	Cmax (in vivo [3]) [ng/mL]	Tmax (in vivo [3]) [min]	bioavailability (in vivo [3]) [%]	half-life (in vivo [3]) [min]
COc1ccc(-c2ccc3ncc4c(c3n2)N(C2CCNCC2)C(=O)N(C)C4)cn1 [Compound 114]	115	732	–	–	–	–	–	–	–	–	–
COc1ccc(-c2ccc3ncc4c(c3n2)N(C2CCN(C(=O)[C@@H](C)O)CC2)C(=O)N(C)C4)cn1 [Compound 86, (R)-1-(1-(2-hydroxypropanoyl)piperidin-4-yl)-9-(6-methoxypyridin-3-yl)-3-methyl-3,4-dihydropyrimido[5,4-c][1,5]naphthyridin-2(1H)-one]	9.7	257	13.6	3.58	154	12	177	251	19.8	58	62.4

Reference: patent US9284315B2, “Three-ring PI3K and/or mTOR inhibitor” (XUANZHU PHARMA CO., LTD., priority 2011, dated 2016)
